The nature of data set [1]: in vivo. Particulars: Sprague-Dawley, rat, po, 3 mg/kg.
For data set [2], the species on record is Rattus norvegicus. The settings on record: in vivo, po, 3 mg/kg.
Data set [3] is described as follows: in vivo. Particulars: Sprague-Dawley, rat, po, 3 mg/kg. The source holds these as a separate data set.
Data set [4] is filed under the species Rattus norvegicus. Particulars: in vivo, po, 3 mg/kg. This is another data set of the same source.
Data set [5] is filed under the species Rattus norvegicus. The settings on record: in vivo, po, 3 mg/kg. The source holds these as a separate data set.
A short description of data set [6]: in vivo. The settings on record: Sprague-Dawley, rat, po, 3 mg/kg. This is another data set of the same source.
A short description of data set [7]: in vivo. The settings on record: Sprague-Dawley, rat, po, 3 mg/kg. The source holds these as a separate data set.
A short description of data set [8]: in vivo. The settings on record: Sprague-Dawley, rat, plasma, po, 3 mg/kg.
A short description of data set [9]: in vivo. Particulars: Sprague-Dawley, rat, po, 3 mg/kg. This is another data set of the same source.

Here are results for five compounds from ChEMBL document CHEMBL3352708, “Discovery of oxazole and triazole derivatives as potent and selective S1P(1) agonists through pharmacophore-guided design” (Eur J Med Chem, 2014).

Usually Cmax stands for the highest concentration seen after dosing. By Tmax is commonly meant the time from dosing to the highest level. `CCCCCCCCc1ccc(CCC(N)(CO)COP(=O)(O)O)cc1` (stereo not drawn) gave a Cmax in data set [1] of 385 ng/mL. The compound further registered a Vss/F in data set [2] of 17.2 L/kg. Moreover, the time of peak concentration (Tmax) in data set [3] is 6 h. This compound displayed an AUCt in data set [4] of 4910 ng·h/mL. In data set [5], this compound yielded a t1/2 of 25.2 h.

The half-life is the time needed for the level to fall by half in the phase considered. Read a high half-life as slow loss. As usually defined, the Vd/F is the apparent distribution volume after extravascular dosing. A word on the AUC(0-t): it is exposure summed from dosing to a finite time, without extrapolation to infinity. Low readings indicate less exposure, high ones more exposure. As usually defined, the CL/F is clearance divided by bioavailability, as obtained after extravascular dosing. `COc1ccc(-c2nc(-c3ccc(CCC(N)(CO)CO)cc3)co2)cc1.Cl` yielded a peak concentration (Cmax) in data set [1] of 9.51 ng/mL. Also, in data set [3], the time of peak concentration (Tmax) was 4.7 h. The same compound gave a half-life in data set [6] of 5.2 h. The compound further displayed a Vd/F in data set [7] of 300 L/kg. In data set [8], this compound had an area under the curve AUC(0-t) of 73.4 ng·h/mL. This compound also had a CL/F in [9] of 692 mL/min/kg.

In turn, `Cl.NC(CO)(CO)CCc1ccc(-c2coc(-c3ccc(Cl)cc3)n2)cc1` had a Cmax in [1] of 28.5 ng/mL. The Tmax in [3] is 6.7 h. In addition, the half-life in data set [6] is 18.8 h. In data set [7], the Vd/F was determined as 60 L/kg. The same compound gave an AUC(0-t) in data set [8] of 900 ng·h/mL. In data set [9], this compound showed an apparent clearance (CL/F) of 36.7 mL/min/kg.

For `Cl.NC(CO)(CO)CCc1ccc(-c2coc(Cc3ccc(Cl)cc3)n2)cc1`, the Cmax in [1] came to 109 ng/mL. Also, the Tmax in data set [3] turned out to be 4 h. For the same compound, in [6], the half-life was 21.1 h. Further, the Vd/F in data set [7] stood at 44.1 L/kg. For the same compound, in data set [8], the AUC(0-t) is 1700 ng·h/mL. This compound gave a CL/F in data set [9] of 25 mL/min/kg.

In data set [1], `CCCCCCCCc1ccc(CCC(N)(CO)CO)cc1` [FINGOLIMOD] gave a Cmax of 13.2 ng/mL. Also, in data set [2], the Vss/F amounted to 208 L/kg. Further, the time to peak (Tmax) in data set [3] was found to be 8.4 h. This compound also displayed an AUCt in data set [4] of 319 ng·h/mL. This compound yielded a t1/2 in [5] of 18.9 h.
